Data: paper PMC3914206

How the values were obtained:
panel of 442 kinases [1] = target: T1, panel of 442 kinases (Homo sapiens, UniProt Q02156); type: binding; conditions: Compound Concentration 10 µM
T1 construct: purchased KINOMEscan
T1 sequence (Q02156 1-737): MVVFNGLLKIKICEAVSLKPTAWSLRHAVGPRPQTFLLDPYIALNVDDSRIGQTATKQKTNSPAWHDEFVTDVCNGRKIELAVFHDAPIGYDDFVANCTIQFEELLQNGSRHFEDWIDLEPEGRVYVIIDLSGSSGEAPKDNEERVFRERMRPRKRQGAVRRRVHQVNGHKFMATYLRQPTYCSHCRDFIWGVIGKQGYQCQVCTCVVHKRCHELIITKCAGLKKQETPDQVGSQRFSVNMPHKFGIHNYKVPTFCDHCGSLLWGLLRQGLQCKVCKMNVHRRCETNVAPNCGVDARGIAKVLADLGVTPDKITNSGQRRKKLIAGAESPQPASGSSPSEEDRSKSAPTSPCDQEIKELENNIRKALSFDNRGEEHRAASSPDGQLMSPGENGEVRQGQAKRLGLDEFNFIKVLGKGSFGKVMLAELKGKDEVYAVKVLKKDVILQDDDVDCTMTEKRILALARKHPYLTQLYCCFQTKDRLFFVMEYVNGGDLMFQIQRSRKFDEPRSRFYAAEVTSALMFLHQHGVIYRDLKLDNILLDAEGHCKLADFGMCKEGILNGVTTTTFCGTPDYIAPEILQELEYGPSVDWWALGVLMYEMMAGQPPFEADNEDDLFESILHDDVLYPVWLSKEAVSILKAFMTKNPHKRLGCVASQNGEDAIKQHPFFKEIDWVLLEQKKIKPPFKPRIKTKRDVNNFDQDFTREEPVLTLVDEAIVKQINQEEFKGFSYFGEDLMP
Excerpt: (§1) We assessed the selectivity of members of this scaffold using the KINOMEscan methodology across a near comprehensive panel of 442 kinases [[18,27]].

panel of 442 kinases [2] = target: T2, panel of 442 kinases (Homo sapiens, UniProt Q99640); type: binding; conditions: Compound Concentration 10 µM
T2 construct: purchased KINOMEscan
T2 sequence (Q99640 1-499): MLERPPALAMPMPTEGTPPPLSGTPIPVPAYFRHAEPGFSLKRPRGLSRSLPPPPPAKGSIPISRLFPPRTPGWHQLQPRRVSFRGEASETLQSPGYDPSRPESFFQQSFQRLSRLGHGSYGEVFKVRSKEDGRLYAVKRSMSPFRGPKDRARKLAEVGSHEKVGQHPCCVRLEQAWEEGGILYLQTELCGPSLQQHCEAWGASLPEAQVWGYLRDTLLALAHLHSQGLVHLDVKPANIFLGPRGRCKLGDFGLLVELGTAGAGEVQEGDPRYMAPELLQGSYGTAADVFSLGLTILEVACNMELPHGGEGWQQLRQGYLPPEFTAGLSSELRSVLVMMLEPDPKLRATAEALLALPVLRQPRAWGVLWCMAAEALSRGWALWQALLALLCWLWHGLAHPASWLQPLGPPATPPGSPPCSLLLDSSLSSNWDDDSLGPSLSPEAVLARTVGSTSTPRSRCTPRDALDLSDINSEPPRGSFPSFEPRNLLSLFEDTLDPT
Excerpt: as §1

Row | SMILES | KINOMEscan: PRKCE (panel of 442 kinases [1]) | KINOMEscan: PKMYT1 (panel of 442 kinases [2])
1 | COc1cc(C(=O)N2CCC(N3CCN(C)CC3)CC2)ccc1Nc1ncc2c(n1)N(C)c1ccccc1C(=O)N2C [15 (LRRK2-IN-1)] | 100 | 80
2 | COc1cc(C(=O)N2CCC(N3CCN(C)CC3)CC2)ccc1Nc1ncc2c(n1)N1CCc3cccc(c31)C(=O)N2C [Compound 24] | 72 | 70
3 | COc1cc(C(=O)N2CCC(N3CCN(C)CC3)CC2)ccc1Nc1ncc2c(n1)N(C1CCCC1)c1ccccc1C(=O)N2C [Compound 25, 11-cyclopentyl-2-((2-methoxy-4-(4-(4-methylpiperazin-1-yl)piperidine-1-carbonyl)phenyl)amino)-5-methyl-5H-benzo[e]pyrimido[5,4-b][1,4]diazepin-6(11H)-one] | 79 | 100
4 | CCOc1cc(C(=O)N2CCC(N3CCN(C)CC3)CC2)ccc1Nc1ncc2c(n1)N(C1CCCC1)c1ccccc1C(=O)N2C [Compound 26] | 98 | 100
